Assay results reported in patent US20100255015A1 (priority 2007, published 2010).
Where two headings read alike, the source gives them in different places.

Tests used:
Z5B71 T cell clone = assay: T cell activation assay: stimulation of the Z5B71 T cell clone, IFN-γ ELISA; assay type: cell-based, human; conditions: antigen-loaded APCs, 36 hr
CD1b = molecular target: T1, CD1b (Homo sapiens, UniProt P29016); assay type: cell-based; conditions: Z5B71 clone
T1 construct: expressed in transfected cells; host or cells: THP-1 (human promyelocytic), BCMGS-Neo / -Hygro vectors, electroporation
T1 sequence (P61769 21-119): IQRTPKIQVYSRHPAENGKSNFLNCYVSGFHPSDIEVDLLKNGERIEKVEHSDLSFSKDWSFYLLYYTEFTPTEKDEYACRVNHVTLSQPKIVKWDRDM
T1 sequence (P29016 18-333): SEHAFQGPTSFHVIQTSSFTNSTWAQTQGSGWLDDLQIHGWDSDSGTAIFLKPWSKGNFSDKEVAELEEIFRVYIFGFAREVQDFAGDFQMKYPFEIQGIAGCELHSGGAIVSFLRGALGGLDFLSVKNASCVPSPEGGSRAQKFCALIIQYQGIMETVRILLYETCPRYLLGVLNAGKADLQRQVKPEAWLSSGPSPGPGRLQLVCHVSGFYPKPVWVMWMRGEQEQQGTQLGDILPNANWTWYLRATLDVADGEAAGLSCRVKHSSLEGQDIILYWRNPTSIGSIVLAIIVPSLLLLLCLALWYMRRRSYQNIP

[1] = tested on: PBMCs with autologous DCs; assay type: cell-based, human
[2] = tested on: CD1b-restricted T cell clones Z5B71, Z4B27, Z5B11; assay: DCs pulsed with heat-killed or infected with living M. tuberculosis, recognition by CD1b-restricted T cell clones; assay type: cell-based, human
Procedure: Pulsing and infection of DCs with M. tuberculosis. M. tuberculosis was killed at 80° C. for 20 min and incubated in RPMI-1640 medium containing 10% FCS for 2 hours at 37° C. with DCs (3×10^4/well) before addition of T cells (10^5/well in triplicate). DCs were infected as previously described De Libero et al. (2005) Immunity 22, 763-72 and IFN-γ release was monitored by ELISA.

| Substance | stimulation of the Z5B71 T cell clone (IFN-γ release) (Z5B71 T cell clone) | T cell response with APCs expressing CD1b and CD1e versus only CD1b (IFN-γ release) (CD1b; THP-1-CD1b vs THP-1-CD1b-CD1e) | CD1 restriction: T cell stimulation with panel of CD1-transfected APCs (TNF-α release) (CD1b; THP-1 transfected with CD1A, CD1B or CD1C) | CD1 restriction: inhibition of clone reactivity by anti-CD1 mAbs (TNF-α release) (CD1b; mAbs at 10 μg/ml, 30 min before T cells) | IFN-γ release after stimulation, mean average [1] [pg/mL] | IFN-γ release after stimulation, mean average ([1]; 10 μg/ml, 6 days) [pg/mL] | effect of blocking antibodies against type 1 CD1 molecules on induced IFN-γ secretion ([1]; PPD-positive healthy donors, CD1 blocking antibodies 10 μg/ml each) | IFN-γ release after stimulation ([1]; naïve, PPD-negative donors (n=10), 10 μg/ml, 6 days) | IFN-γ release after stimulation ([1]; tuberculosis patients (n=11), 10 μg/ml, 6 days) | immunogenicity when APCs infected with living M. tuberculosis (IFN-γ release by Z5B71) [2] |
| --- | --- | --- | --- | --- | --- | --- | --- | --- | --- | --- |
| (R)-1-O-mycoloyl-glycerol (3-O-mycoloyl-sn-glycerol) [s(R)-GroMM] | stimulated the Z5B71 T cells more efficiently than the s(S)-GroMM |  |  |  |  |  |  |  |  |  |
| (S)-1-O-mycoloyl-glycerol (1-O-mycoloyl-sn-glycerol) [s(S)-GroMM] | s(R)-GroMM stimulated the Z5B71 T cells more efficiently than the s(S)-GroMM |  |  |  |  |  |  |  |  |  |
| glycerol monomycolate [GroMM] | intermediate activity | very similar T cell response | Only CD1b-expressing cells were able to stimulate T cells | only anti-CD1b mAbs were capable of inhibiting the reactivity of the clone | 117 | 73 | abrogated the reactivity | no response | no IFN-γ secretion above background levels | highly immunogenic |
